Assay results taken from patent US11987642B2, “Bispecific HER2 and CD3 binding molecules” (MEMORIAL SLOAN KETTERING CANCER CENTER, priority 2014, dated 2024).

Tests used:
SCCHN cell line PCI-30 = experiment: Proliferation assay (WST-8), PCI-30; type: cell-based, human
Method: (§1) Cell proliferation was determined using an ELISA plate reader and the WST-8 kit (Dojindo technologies) following the manufacturer's instructions and using the formula: % survival rate=(Sample-Background)/(Negative control-Background). Lapatinib (MSKCC pharmacy) was ground using a mortar and pestle and suspended in DMSO as previously described. To determine statistical significance, the results were analyzed using one-way ANOVA using Prism 6.0.

U2OS osteosarcoma cells = experiment: Proliferation assay (WST-8), U2OS; type: cell-based, human
Method: as §1

[1] = test system: HeLa cervical carcinoma cells; experiment: Proliferation assay (WST-8), HeLa; type: cell-based, human
Method: as §1

[2] = test system: HeLa cervical carcinoma cells; experiment: T cell cytotoxicity assays, HeLa; type: cell-based, human; details: lapatinib pretreatment
Method: The ^51Cr release assay was performed with effector T cells cultured in vitro in the presence of anti-CD3 and anti-CD28 for about 14 days. All target tumor cells were harvested with 2 mM EDTA in PBS, labeled with ^51Cr (Amersham, Arlington Height, IL) at 100 μCi/106 cells at 37° C. for 1 h. 5000 target cells/well were mixed with 50,000 effector cells (E:T=10:1) and BsAb antibodies in 96-well polystyrene round-bottom plates (BD Biosciences) to a final volume of 250 μl/well. The plates were incubated at 37° C. for 4 h. The released ^51Cr in supernatant was counted in a γ-counter (Packed Instrument, Downers Grove, IL). Percentage of specific release was calculated using the formula: (experimental cpm−background cpm)/(total cpm−background cpm)×100%, where cpm represented counts per minute of ^51Cr released. […] EC50 was calculated using SigmaPlot software.

[3] = test system: trastuzumab-sensitive breast carcinoma cell line SKBR3; experiment: Proliferation assay (WST-8), SKBR3; type: cell-based, human; details: SKBR3, 72 hours, 10 μg/mL antibody; lapatinib positive control
Method: as §1
For cell proliferation assays, 5,000 tumor cells were plated using RPMI-1640 supplemented with 10% FBS in a 96 well plate for 36 hours before being treated with lapatinib or the antibodies at the specified concentrations. […] Lapatinib (Memorial Sloan Kettering Cancer Center pharmacy) was ground using a mortar and pestle and suspended in DMSO as previously described (Chen et al., 2012, Molecular cancer therapeutics 11:660-669). To determine statistical significance, the results were analyzed using one-way ANOVA using Prism 6.0.

HER2-positive cells = experiment: Blocking of HER2-BsAb redirected T cell cytotoxicity; type: cell-based, human; details: pre-incubation with blocking antibody
HCC1954 xenografts = experiment: Subcutaneous HCC1954 xenograft with intravenous PBMC; type: in vivo, DKO mice
Method: Subcutaneous xenografts were created with 5×10^6 cells suspended in Matrigel (Corning Corp, Tewksbury MA) and implanted in the flank of DKO mice. Effector peripheral blood mononuclear cell (PBMC) cells were purified from buffy coats purchased from the New York Blood Center. Prior to every experimental procedure, PBMCs were analyzed for their percentage of CD3, CD4, CD8 and CD56 cells to ensure consistency. […] Tumor size was measured using (1) hand-held TM900 scanner (Pieira, Brussels, BE); (2) Calipers; or (3) bioluminescence. Bioluminescence imaging was conducted using the Xenogen In Vivo Imaging System (IVIS) 200 (Caliper LifeSciences). Briefly, mice were injected intravenously with 0.1 mL solution of D-luciferin (Gold Biotechnology; 30 mg/mL stock in PBS). Images were collected 1 to 2 minutes after injection using the following parameters: a 10- to 60-second exposure time, medium binning, and an 8 f/stop. Bioluminescence image analysis was performed using Living Image 2.6 (Caliper LifeSciences).
In two other separate experiments, subcutaneous HER2-positive breast carcinoma cell line HCC1954 was mixed with subcutaneous PBMCs.

| Molecule | sensitivity of cells in proliferation assay (SCCHN cell line PCI-30) | sensitivity of cells in proliferation assay (U2OS osteosarcoma cells) | sensitivity of cells in proliferation assay [1] | effect of pretreatment on sensitivity to HER2-BsAb mediated cytotoxicity [2] | anti-proliferative effect [3] | effect of blocking on HER2-BsAb induced T cell cytotoxicity (HER2-positive cells) | tumor growth (HCC1954 xenografts) |
| --- | --- | --- | --- | --- | --- | --- | --- |
| C#Cc1cccc(Nc2ncnc3cc(OCCOC)c(OCCOC)cc23)c1 [erlotinib] | resistant | minimal sensitivity | pan-resistant |  |  |  |  |
| CS(=O)(=O)CCNCc1ccc(-c2ccc3ncnc(Nc4ccc(OCc5cccc(F)c5)c(Cl)c4)c3c2)o1 [lapatinib] | resistant | minimal sensitivity | pan-resistant | increased sensitivity | strongest inhibition of cell proliferation |  |  |
| CCOc1cc2ncc(C#N)c(Nc3ccc(OCc4ccccn4)c(Cl)c3)c2cc1NC(=O)/C=C/CN(C)C [neratinib] | resistant | minimal sensitivity | pan-resistant |  |  |  |  |
| OKT3: CD3 specific blocking mAb |  |  |  |  |  | prevented HER2-BsAb T cell mediated cytotoxicity |  |
| huOKT3: humanized OKT3 CD3-specific antibody |  |  |  |  |  | blocked the ability of HER2-BsAb to induce T cell cytotoxicity | only modest effects |
